We go through two compounds from US9581587B2, “Sperm staining and sorting methods” (INGURAN, LLC, priority 2011, dated 2017).

Data set [1] concerns sperm. Briefly: Post thaw motility and percent intact acrosomes of sex sorted, frozen-thawed sperm (Example 1). Format: cell-based, bovine. As to conditions: average over all bulls; for Motility Average 3 Hour: post thaw 3 hours, treatments as E1. The procedure: Sperm was collected from 10 different bulls on a routine collection schedule using an artificial vagina over the course of 4 days. The 10 bulls included both Jersey bulls and Holstein bulls. All ejaculates contained greater than 60% progressive motility and greater than 70% morphological normal sperm. Antibiotics were added within 15 minutes of collection.
Red food dye treatment 40%—A reduced volume of red food dye No. 40 control was established. Sperm was diluted to 160×10^6 sperm per ml in a modified TALP buffer, as described in Table 1, at a pH of 7.4. Samples collected from Jersey bulls were incubated with 16 μl of Hoechst 33342 per 2 ml of sample for between 45 and 60 minutes at 34° C., while samples collected from Holstein bulls were incubated 17 μl of Hoechst 33342 per 2 ml of sample for between 45 and 60 minutes at 34° C. After incubation an equal volume of a second modified TALP was added reducing the concentration to 80×10^6. The second modified TALP includes the components described in Table 1 with the addition of 4% egg yolk, 40 μM red food dye No. 40 (20 g/L) and the pH dropped to 5.5 with HCl.
Yellow food dye was included in a second group at an equal concentration. Sperm was diluted to 160×10^6 sperm per ml in a modified TALP buffer, as described in Table 1, at a pH of 7.4. Samples collected from Jersey bulls were incubated with 14 μl of Hoechst 33342 per 2 ml of sample for between 45 and 60 minutes at 34° C., while sample collected from Holstein bulls were incubated 15 μl of Hoechst 33342 per 2 ml of sample for between 45 and 60 minutes at 34° C. After incubation an equal volume of a second modified TALP was added reducing the concentration to 80×10^6. The second modified TALP includes the components described in Table 1 with the addition 4% egg yolk, […] yellow food dye No. 6 and a pH dropped to 5.5 with HCl. […]
Straws were thawed the following day for motility measurements at 0 hour and 3 hours. Percent intact acrosomes were measured as well, and the overall averages over all bulls on each day are illustrated in Table 3. […]

Data set [2] deals with sperm. Briefly: Post thaw motility Elk (Example 3). Format: cell-based. Conditions: post thaw 0 HR; RED TALP with 16 μL Hoechst 33342, Y6 with 14 μL. How it is done: (§1) Each of deer and elk were collected in the Tris-egg yolk catch fluid described as a catch media in Example 1, and shipped for sorting.
(§2) A portion of each of the deer and the elk were stained by the red food dye No. 40 treatment 40% with 16 μL Hoechst 33342 and the yellow food dye No. 6 treatment with 14 μL Hoechst 33342 as described in Example 1.
(§3) Samples were each bulk sorted with the same machine and parameters described in Example 1. Both sorted X and sorted Y sperm were collected into a single catch. The sorted samples were then frozen like those described in Example 1.
(§4) Frozen thawed samples were then tested for post thaw motilities and post thaw DNA fragmentation. Post thaw motilities were slightly higher in Elk sorted with a yellow quencher, while a more significant difference existed in progressive motility. In Table 10, post thaw DNA fragmentation in Elk can be seen at about double after 48 hours when red food dye No. 40 is compared to yellow food dye No. 6 as a dead quencher.

For data set [3], the system named is sperm. The data set is described as follows: Post thaw DNA fragmentation Elk (Example 3). Format: cell-based. How it is done: as §1, §2, §3, §4
Data set [4] deals with sperm. The data set is described as follows: Post thaw motility of sorted sperm on CASA (Example 4). Format: cell-based, canine. Conditions: for Motile / Progressive: average, 0 Hr post thaw. How it is done: Sperm was collected from a single canine at room temperature into CaniPro Chill 5, available from Minitube, WI, USA, then centrifuged into a pellet and resuspended in a Tris buffer at a pH of 6.8.
Samples were extended to 40×10^6 sperm/ml in 1 ml volumes with the Tris buffer described in Example 1 but set to a pH of 7.2. Ten samples were then stained 4, 4, 5, 5, 7, 8, 8, 9, 9, and 10 μL of Hoechst 33342 and quenched with one of two quenching dyes at a concentration of 50 μM in a second buffer Tris buffer.
Red food dye No. 40 quencher—1 ml Tris at a pH 6.3 was added with red food dye No. 40 into samples stained with 4, 5, 8, 9, 10 μL Hoechst 33342. The red food dye No. 40 was added at a concentration of about 50 μM.
Yellow food dye No. 6 quencher—1 ml Tris at a pH 6.3 was added with yellow food dye No. 6 into samples stained with 4, 5, 7, 8, 9 μL Hoechst 33342. The yellow food dye No. 6 was added at the same concentration as the red food dye No. 40 quencher, at about 50 μM.
5 million cells were sex sorted with a MoFlo SX XPD into 50 mL Falcon tubes having 3.5 mL of a Tris-egg yolk catch fluid, described in Example 1 for both X and Y populations. Two samples were sorted, the red food dye No. 40 quenched treatment with 9 μL Hoechst 33342 and the yellow food dye […] quenched treatment with 7 μL Hoechst 33342.
Straws were then frozen and stored in liquid nitrogen.
Straws were thawed for 30 sec in a 38° C. water bath and their motilities were examined on CASA.
Table 12 illustrates the average motilities and progressive motilities for the sorted treatments. Canine sperm quenched with yellow food dye No. 6 provided about 4.5% more motile sperm in the X population and 6.5% more motile sperm in the Y population. Similarly, the yellow quenched dye provided 7% better progressive motility in the X population and 8% better progressive motility in the Y population.

`O=S(=O)([O-])c1ccc(N=Nc2c(O)ccc3cc(S(=O)(=O)[O-])ccc23)cc1.[Na+].[Na+]` [Yellow 6, Disodium 6-hydroxy-5[(4-sulfophenyl)azo]-2-naphthalenesulfononate]: in the data set on sperm [1] (post thaw 0 hour, Red = red food dye No. 40 treatment 40% (16-17 μl Hoechst 33342/2 ml), Yellow = yellow food dye No. 6 (14-15 μl)), the “Motility Average 0 Hour” value is given as 57.7%. Also, the “Motility Average 3 Hour” value in the data set on sperm [1] came to 49.0%. Further, the Motile in the data set with sperm [2] amounted to 55.5; in the data set with sperm [4] (X population) it was 24; in the data set with sperm [4] (Y population), 25. Besides, the Progressive is recorded as 38.0 in the data set with sperm [2], 18.5 in the data set with sperm [4] (X population) and 21 in the data set on sperm [4] (Y population). The DNA fragmentation Post Sort in the data set on sperm [3] (post thaw 0 HR) is 0%; in the data set on sperm [3] (post thaw 24 HR) it was 0%; in the data set on sperm [3] (post thaw 48 HR), 0.3%. Besides, the DNA fragmentation Pre-sort with sperm [3] (post thaw 0 HR) was found to be 2.3%; with sperm [3] (post thaw 24 HR), 3.3%; in the data set with sperm [3] (post thaw 48 HR), 3.7%. Moreover, the “better progressive motility than red quenched” value in the data set with sperm [4] (X population) is recorded as 7%; in the data set on sperm [4] (Y population) it was 8%. Further, the “more motile sperm than red quenched” value in the data set on sperm [4] (X population) is listed as “about 4.5%”; in the data set on sperm [4] (Y population), about 6.5%.

Take `COc1cc(S(=O)(=O)O)c(C)cc1N=Nc1c(O)ccc2cc(S(=O)(=O)O)ccc12` [Red 40, 6-hydroxy-5-[(2-methoxy-5-methyl-4-sulfophenyl)azo]-2-naphthalenesulfonic acid, reference compound]: in the data set with sperm [1], the “Motility Average 3 Hour” value was determined as 47.0%. Moreover, the Motile in the data set with sperm [2] came out at 51.0. Moreover, the Progressive in the data set with sperm [2] is listed as 29.0; in the data set with sperm [4] (Y population) it was 13. Besides, the “post thaw DNA fragmentation compared to yellow food dye No. 6” value in the data set with sperm [3] was “about double”. The DNA fragmentation Post Sort came to 0% with sperm [3] (elk, 0 h); 0.3% in the data set with sperm [3] (elk, 24 h); 0.7% with sperm [3] (elk, 48 h). The DNA fragmentation Pre-sort with sperm [3] (elk, 0 h) was found to be 2.3%; in the data set with sperm [3] (elk, 24 h) it was 5.6%; with sperm [3] (elk, 48 h), 6%.
